Assay results: patent EP4653437A2 (Innovo Therapeutics Inc., priority 2023, dated 2024)

target: T1, human 15-PGDH (Homo sapiens, UniProt P15428); assay: Evaluation of 15-PGDH inhibitory activity (fluorescence enzyme assay, NAD+/PGE2); assay type: biochemical; conditions: human 15-PGDH enzyme, fluorescence Vmax
T1 construct: purchased R&D System 5660-DH
T1 sequence (P15428 1-266): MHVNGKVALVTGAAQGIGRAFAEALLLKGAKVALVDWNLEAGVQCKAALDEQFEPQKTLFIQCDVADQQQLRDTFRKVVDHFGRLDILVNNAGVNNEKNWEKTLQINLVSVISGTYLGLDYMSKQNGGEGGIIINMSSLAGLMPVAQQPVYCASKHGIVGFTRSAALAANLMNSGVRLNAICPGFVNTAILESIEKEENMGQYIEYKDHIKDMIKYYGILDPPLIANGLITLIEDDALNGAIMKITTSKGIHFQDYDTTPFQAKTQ
Method: 15-PGDH inhibition activity of Example compounds was measured as follows. 6.7 ng of human 15-PGDH (R&D System# 5660-DH) enzyme (10 µL) was added to a black 96 well plate, 60 µL of buffer (50 mM Tris-HCl, pH 7.5, 0.01% Tween 20) was added, and 10 µL of 200 µM β-Nicotinamide adenine dinucleotide sodium salt (Sigma, Cat# N0632-5G) was added. 10 µL of (10x) compound solution in DMSO was added and reacted for 10 minutes at room temperature.

| SMILES | IC50 [nM] |
| --- | --- |
| O=C(c1cc2nc(-c3ccc4cn[nH]c4c3)ccc2[nH]1)N1CCCCC1 [Example 190, (5-(1H-indazol-6-yl)-1H-pyrrolo[3,2-b]pyridin-2-yl)(piperidin-1-yl)methanone] | ≤ 100 |
| COc1ccc(-c2cccc3c(C(=O)N4CCCCC4)nnn23)cc1 [Example 168, (7-(4-methoxyphenyl)-[1,2,3]triazolo[1,5-a]pyridin-3-yl)(piperidin-1-yl)methanone] | 100 to 1000 |
| O=C(c1cc2nc(-c3ccc4ccccc4c3)ccc2[nH]1)N1CCCCC1 [Example 189, (5-(naphthalen-2-yl)-1H-pyrrolo[3,2-b]pyridin-2-yl)(piperidin-1-yl)methanone] | > 1000 |
| O=C(c1cc2c(-c3ccc4c(c3)OCO4)ncnn2c1)N1CCCCC1 [Example 176, (4-(benzo[d][1,3]dioxol-5-yl)pyrrolo[2,1-f][1,2,4]triazin-6-yl)(piperidin-1-yl)methanone] | > 1000 |
| O=C(c1cc2nc(N3Cc4ccccc4C3=O)ccc2[nH]1)N1CCCCC1 [Example 191, 2-(2-(piperidine-1-carbonyl)-1H-pyrrolo[3,2-b]pyridin-5-yl)isoindolin-1-one] | 100 to 1000 |
| O=C(c1cnn2c(-c3ccccc3)cccc12)C1CCCCC1 [Example 158, cyclohexyl(7-phenylpyrazolo[1,5-a]pyridin-3-yl)methanone] | 100 to 1000 |
| O=C(c1cc2ncc(-c3ccc4c(c3)OCO4)cc2[nH]1)N1CCCCC1 [Example 172, (6-(benzo[d][1,3]dioxol-5-yl)-1Hpyrrolo[3,2-b]pyridin-2-yl)(piperidin-1-yl)methanone] | > 1000 |
| O=C(c1cc2c(-c3ccc4c(c3)OCO4)cncc2[nH]1)N1CCCCC1 [Example 175, (4-(benzo[d][1,3]dioxol-5-yl)-1H-pyrrolo[2,3-c]pyridin-2-yl)(piperidin-1-yl)methanone] | > 1000 |
| CC(C)(C)OC(=O)N1CCN(C(=O)c2cccc(-c3cccc4c(C(=O)N5CCCCC5)cnn34)c2)CC1 [Example 35, tert-butyl 4-(3-(3-(piperidine-1-carbonyl)pyrazolo[1,5-a]pyridin-7-yl)benzoyl)piperazine-1-carboxylate] | ≤ 100 |
| O=C(c1cnn2c(-c3coc4ccccc34)cccc12)N1CCCCC1 [Example 122, (7-(benzofuran-3-yl)pyrazolo[1,5-a]pyridin-3-yl)(piperidin-1-yl)methanone] | ≤ 100 |
| O=C(c1cc2nc(-c3ccncc3)ccc2[nH]1)N1CCCCC1 [Example 184, piperidin-1-yl(5-(pyridin-4-yl)-1H-pyrrolo[3,2-b]pyridin-2-yl)methanone] | 100 to 1000 |
| O=C(c1cc2nc(-c3ccc(F)cc3)ccc2[nH]1)N1CCCCC1 [Example 182, (5-(4-fluorophenyl)-1H-pyrrolo[3,2-b]pyridin-2-yl)(piperidin-1-yl)methanone] | 100 to 1000 |
| COc1ccc(-c2ccc3[nH]c(C(=O)N4CCCCC4)cc3n2)cc1 [Example 179, (5-(4-methoxyphenyl)-1H-pyrrolo[3,2-b]pyridin-2-yl)(piperidin-1-yl)methanone] | 100 to 1000 |
| CN1Cc2cc(-c3cccc4c(C(=O)N5CCCCC5)cnn34)ccc2C1=O [Example 144, 2-methyl-5-(3-(piperidine-1-carbonyl)pyrazolo[1,5-a]pyridin-7-yl)isoindolin-1-one] | ≤ 100 |
| Cn1nccc1-c1cccc2c(C(=O)N3CCCCC3)cnn12 [Example 25, (7-(1-methyl-1H-pyrazol-5-yl)pyrazolo[1,5-a]pyridin-3-yl)(piperidin-1-yl)methanone] | ≤ 100 |
| O=C(c1cnn2c(-c3ccc([N+](=O)[O-])cc3)cccc12)N1CCCCC1 [Example 13, (7-(4-nitrophenyl)pyrazolo[1,5-a]pyridin-3-yl)(piperidin-1-yl)methanone] | ≤ 100 |
| O=C(c1cc2c(-c3ccc4c(c3)OCO4)ncnc2[nH]1)N1CCCCC1 [Example 177, (4-(benzo[d][1,3]dioxol-5-yl)-7H-pyrrolo[2,3-d]pyrimidin-6-yl)(piperidin-1-yl)methanone] | > 1000 |
| COc1ccc(-c2ccc3[nH]c(C(=O)N4CCCCC4)cc3n2)cc1OC [Example 181, (5-(3,4-dimethoxyphenyl)-1H-pyrrolo[3,2-b]pyridin-2-yl)(piperidin-1-yl)methanone] | 100 to 1000 |
| O=C(c1cc2nc(-c3ccoc3)ccc2[nH]1)N1CCCCC1 [Example 183, (5-(furan-3-yl)-1H-pyrrolo[3,2-b]pyridin-2-yl)(piperidin-1-yl)methanone] | > 1000 |
| CC(=O)c1cnn2c(-c3ccc(C#N)cc3)cccc12 [Example 152, 4-(3-acetylpyrazolo[1,5-a]pyridin-7-yl)benzonitrile] | 100 to 1000 |
| O=C(c1cnn2c(-c3ccc(C(F)(F)F)nc3Cl)cccc12)N1CCCCC1 [Example 272, (7-(2-chloro-6-(trifluoromethyl)pyridin-3-yl)pyrazolo[1,5-a]pyridin-3-yl)(piperidin-1-yl)methanone] | ≤ 100 |
| O=C(c1cc2nc(-c3coc4ccccc34)ccc2[nH]1)N1CCCCC1 [Example 188, (5-(benzofuran-3-yl)-1H-pyrrolo[3,2-b]pyridin-2-yl)(piperidin-1-yl)methanone] | 100 to 1000 |
| O=C(Cc1cccnc1)Nc1ccc(-c2cccc3c(C(=O)N4CCCCC4)cnn23)cn1 [Example 106, N-(5-(3-(piperidine-1-carbonyl)pyrazolo[1,5-a]pyridin-7-yl)pyridin-2-yl)-2-(pyridin-3-yl)acetamide] | ≤ 100 |
| O=C(c1cnn2c(-c3cc4ccccc4o3)cccc12)N1CCCCC1 [Example 123, (7-(benzofuran-2-yl)pyrazolo[1,5-a]pyridin-3-yl)(piperidin-1-yl)methanone] | ≤ 100 |
| COC(=O)c1ccc(-c2cccc3c(C(=O)N4CCCCC4)cnn23)cc1 [Example 11, methyl 4-(3-(piperidine-1-carbonyl)pyrazolo[1,5-a]pyridin-7-yl)benzoate] | ≤ 100 |
| O=C(c1cnn2c(-c3ccc4[nH]ccc4c3)cccc12)N1CCCCC1 [Example 126, (7-(1H-indol-5-yl)pyrazolo[1,5-a]pyridin-3-yl)(piperidin-1-yl)methanone] | ≤ 100 |
| O=C(c1cncc(-c2cccc3c(C(=O)N4CCCCC4)cnn23)c1)N1CC2(CCC2)C1 [Example 43, (7-(5-(2-azaspiro[3.3]heptane-2-carbonyl)pyridin-3-yl)pyrazolo[1,5-a]pyridin-3-yl)(piperidin-1-yl)methanone] | ≤ 100 |

Other lines, results leading:

| IC50 [nM] | SMILES |
| --- | --- |
| ≤ 100 | COc1cccc(-c2cccc3c(C(=O)N4CCCCC4)cnn23)c1 [Example 4, (7-(3-methoxyphenyl)pyrazolo[1,5-a]pyridin-3-yl)(piperidin-1-yl)methanone] |
| ≤ 100 | Nc1ccc(-c2cccc3c(C(=O)N4CCCCC4)cnn23)cc1 [Example 14, (7-(4-aminophenyl)pyrazolo[1,5-a]pyridin-3-yl)(piperidin-1-yl)methanone] |
| ≤ 100 | O=C(c1cnn2c(-c3cccc(Cl)c3)cccc12)N1CCCCC1 [Example 2, (7-(3-chlorophenyl)pyrazolo[1,5-a]pyridin-3-yl)(piperidin-1-yl)methanone] |
| 100 to 1000 | O=C(c1cc2nc(-c3ccc(Cl)cc3)ccc2[nH]1)N1CCCCC1 [Example 180, (5-(4-chlorophenyl)-1H-pyrrolo[3,2-b]pyridin-2-yl)(piperidin-1-yl)methanone] |
| > 1000 | Nc1ccc(-c2cccn3c(C(=O)N4CCCCC4)cnc23)cc1 [Example 164, (8-(4-aminophenyl)imidazo[1,2-a]pyridin-3-yl)(piperidin-1-yl)methanone] |
| 100 to 1000 | Cc1cc(-c2cccc(Cl)c2)c2ncc(C(=O)N3CCCCC3)n2c1 [Example 165, (8-(3-chlorophenyl)-6-methylimidazo[1,2-a]pyridin-3-yl)(piperidin-1-yl)methanone] |
| ≤ 100 | O=C(c1cnc2c(-c3cccc(Cl)c3)cccn12)N1CCCCC1 [Example 162, (8-(3-chlorophenyl)imidazo[1,2-a]pyridin-3-yl)(piperidin-1-yl)methanone] |
| ≤ 100 | O=C(c1cnn2c(-c3cccc4ccccc34)cccc12)N1CCCCC1 [Example 128, (7-(naphthalen-1-yl)pyrazolo[1,5-a]pyridin-3-yl)(piperidin-1-yl)methanone] |
| ≤ 100 | O=C(c1cnc2c(-c3cccc(Cl)c3)cc(F)cn12)N1CCCCC1 [Example 167, (8-(3-chlorophenyl)-6-fluoroimidazo[1,2-a]pyridin-3-yl)(piperidin-1-yl)methanone] |
| ≤ 100 | O=C(c1cnn2c(-c3cccc([N+](=O)[O-])c3)cccc12)N1CCCCC1 [Example 5, (7-(3-nitrophenyl)pyrazolo[1,5-a]pyridin-3-yl)(piperidin-1-yl)methanone] |
| ≤ 100 | O=C(c1cnn2c(-c3ccc4ccccc4c3)cccc12)N1CCCCC1 [Example 129, (7-(naphthalen-2-yl)pyrazolo[1,5-a]pyridin-3-yl)(piperidin-1-yl)methanone] |
| 100 to 1000 | O=C(c1cc2nc(-c3cccc(Cl)c3)ccc2[nH]1)N1CCCCC1 [Example 185, (5-(3-chlorophenyl)-1H-pyrrolo[3,2-b]pyridin-2-yl)(piperidin-1-yl)methanone] |
| ≤ 100 | O=C(c1cnn2c(-c3ccc4cn[nH]c4c3)cccc12)N1CCCCC1 [Example 125, (7-(1H-indazol-6-yl)pyrazolo[1,5-a]pyridin-3-yl)(piperidin-1-yl)methanone] |
| ≤ 100 | O=C(c1c[nH]c2c(-c3cccc(Cl)c3)cccc12)N1CCCCC1 [Example 169, (7-(3-chlorophenyl)-1H-indol-3-yl)(piperidin-1-yl)methanone] |
